Test results taken from publication PMC5789847, “Bismuth antimicrobial drugs serve as broad-spectrum metallo-β-lactamase inhibitors” (Nature Communications, 2018).

How the values were obtained:
NDM-1 = NDM-1 (Klebsiella pneumoniae, UniProt C7C422); experiment: Zinc displacement analysis by ICP-MS; format: binding; conditions: Zn-bound NDM-1 20 μM + increasing CBS
Method: To monitor the displacement of Zn(II) by Bi(III), ICP-MS was employed to accurately quantify ^209Bi and ^66Zn contents in various purified NDM-1 samples. Purified Zn-bound-NDM-1 (20 μM) dissolved in trace-metal-free ICP-MS buffer containing 50 mM HEPES, pH 7.0, was incubated with various concentrations of CBS at 25 °C for 5 h with mild shaking. The samples were subsequently dialyzed in ICP-MS buffer to remove unbound-metal ions and were then acidified and subsequently analyzed using an ICP-MS spectrometer (Agilent 7500a, Agilent Technologies, CA, USA) with ^115In as an internal standard for ^209Bi, ^66Zn, and ^34S contents, which are used to quantify protein concentration.

NDM-HK [1] = experiment: Time kill assay; format: cell-based, E. coli; conditions: MER 24 μg mL^-1 + CBS 64 μg mL^-1, 24 h, exponential phase
Method: Time kill assay was used to further explore the synergy between MER and Bi(III) compounds. In a typical assay, NDM-HK was cultured overnight and diluted 1:250 into LB broth at 37 °C for 3 h to reach log phase. The initial bacterial density was adjusted to ~10^7 CFU mL^−1 and then exposed to MER, Bi(III) compounds either alone or in combination. LB broth with no drugs served as a control. Aliquots of bacterial suspension were withdrawn at different time intervals (0, 1, 2, 4, 6, 8, and 24 h) for inspection of bacterial viability by agar plating. The concentrations of the drugs used in the test are 24 µg mL^−1 for MER, 64 µg mL^−1 for CBS, and 32 µg mL^−1 for Bi(NAC)3. Data from three independent experiments were averaged and plotted as log10 CFU mL^−1 vs. time (h) for each time point over 24 h. All assays were triplicated and performed three times on different days.

NDM-HK [2] = experiment: Murine peritonitis infection, mucin-free model; format: in vivo, BALB/c mice; conditions: without mucin; MER 50 mg kg^−1 + CBS 50 mg kg^−1, up to 86 h
Excerpt: All experiments were approved by, and performed in accordance with the guidelines approved by Committee on the Use of Live Animals in Teaching and Research (CULATR), the University of Hong Kong. A total of 6–8-week-old, female BALB/c mice (18–22 g) were purchased from Charles River Laboratories, Inc. and were used in all mouse studies. The animals were randomized to cages for each experiment.
In mucin-free survival experiment, the mice were infected with a dose of 5 × 10^7 CFU of NDM-HK in PBS. The mice received monotherapy of MER (50 mg kg^−1) or CBS (50 mg kg^−1), or combination therapy 0.5 h post infection (n = 5 for each group). Other experimental operations and conditions were kept the same as that in mucin-assisted model. Body weights and mice survival were monitored for endpoint till endpoint of the experiment.

NDM-Rosetta OX = experiment: Microdilution MIC assay; format: cell-based, E. coli; conditions: NDM-Rosetta OX
Method: For the test of NDM-Rosetta OX, the growth condition briefly goes as follow. Overnight culture of NDM-Rosetta was 1000-fold diluted into fresh LB medium and regrew to OD ~0.6. The overexpression of NDM-1 was induced by addition of 1 mM isopropyl β-D-1-thiogalactopyranoside (IPTG) for 4 h at 37 °C. The following susceptibility test was performed as described in the Microdilution MIC and MBC assay section in the methodology by using the resulting bacterial pellets with the supplementation of 200 µM IPTG.
(§1) Other procedures were kept strictly the same.

[3] = test system: NDM-C. freundii (NDM-1^+); experiment: Microdilution MIC/MBC and checkerboard assay; format: cell-based, Citrobacter freundii
C208A-Rosetta = experiment: Microdilution MIC assay; format: cell-based, E. coli; conditions: C208A-Rosetta
Method: For the test of C208A-Rosetta, the growth condition briefly goes as follow. Overnight culture of C208A-Rosetta was diluted into fresh LB medium (1000-fold) and regrew to OD ~0.6. The overexpression of NDM-1-C208A was induced by addition of 200 μM isopropyl β-D-1-thiogalactopyranoside (IPTG) for 18 h at 25 °C. The following susceptibility test was performed as described in the Microdilution MIC and MBC assay section in the methodology by using the resulting bacterial pellets with the supplementation of 200 μM IPTG.
as §1

IMP-4 = experiment: IC50 enzyme inhibition assay; format: biochemical; conditions: MER substrate
Method: Freshly prepared 50 nM of Zn2-NDM-1, Zn2-VIM-2, or Zn2-IMP-4 in 50 mM HEPES/Na pH 7.0, 100 mM NaCl were first incubated with various concentrations of CBS for 1 h at 25 °C, then mixed with equal volume of 0.2 mM MER. The assay was performed in a 1 cm quartz cuvette using the kinetic mode on a Varian Cary50 UV-visible spectrophotometer at 25 °C. The decrease in absorbance at 300 nm due to ring-opening of MER was monitored every second for a duration of 10 min until the reaction was completed. The initial rates were extracted and calculated from each reaction curves for fitting IC50 curves.

NDM-HK [4] = experiment: Resistance study: MPC and mutation frequency; format: cell-based, E. coli

NDM-1, sequence (C7C422 29-270, looked up, species assumed): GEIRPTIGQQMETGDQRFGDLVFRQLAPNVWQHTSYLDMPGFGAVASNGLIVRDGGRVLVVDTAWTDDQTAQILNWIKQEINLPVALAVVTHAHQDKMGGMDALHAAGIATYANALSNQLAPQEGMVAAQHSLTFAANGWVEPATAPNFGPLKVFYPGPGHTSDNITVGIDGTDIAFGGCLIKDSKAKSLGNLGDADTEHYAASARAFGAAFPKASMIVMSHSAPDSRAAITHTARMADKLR

## colloidal bismuth subcitrate [CBS]
NDM-1
  Bi(III) bound to the enzyme: 0.96 molar equivalents
  Zn(II) displaced from NDM-1: ca. 2.13 molar equivalents
NDM-HK [1]
  lowering of NDM-HK population in time kill curves: more than 1000 fold
NDM-HK [2]
  mice survived, MER and CBS co-administrated: 40%
NDM-Rosetta OX
  MIC of MER in combination with CBS at 16 µg mL-1: 128 µg/mL
  MIC of MER in combination with CBS at 32 µg mL-1: 128 µg/mL
  MIC of MER in combination with CBS at 256 µg mL-1: 32 µg/mL
[3]; NDM-C. freundii (NDM-CF)
  MBC of MER in combination with compound at 32 µg mL^-1: 1 µg/mL
  MIC of MER in combination with compound at 32 µg mL^-1: 0.5 µg/mL
[3]; NDM-CF
  MBC of Bi(III) compound alone: > 256 µg/mL
  MIC of Bi(III) compound alone: > 256 µg/mL
[3]; NDM-CF, MER + compound, 256 µg mL^-1 set as MIC of Bi(III)
  FICI: 0.125
C208A-Rosetta
  MIC of MER in combination with CBS at 16 µg mL-1: 0.12 µg/mL
  MIC of MER in combination with CBS at 32 µg mL-1: 0.12 µg/mL
IMP-4; IMP-4 50 nM, 1 h preincubation
  IC50: 700 ± 80 nM
IMP-4; IMP-4, dose-dependent
  maximal inhibition of MBL activity: approximately 90%
NDM-HK [4]; MER with increasing CBS concentration
  observed mutation frequency: 1.31 × 10^−7 to 9.84 × 10^−10
NDM-HK [4]; ≥128 µg mL^−1 CBS
  MER MPC with CBS: 2 fold MIC
